Measurements taken from US5565424A, “Superactive VIP antagonists” (Ramot - University Authority for Applied Research and …, priority 1994, dated 1996).
Non-standard residues stand in square brackets, D forms with d. Residues, ends and D or L forms follow the SMILES beside them. Nle = CCCC[C@H](N)C(=O)O

How the values were obtained:
[1] = test system: non-small cell lung cancer (NSCLC) cell lines; experiment: NSCLC colony formation / cell growth, statements across cell lines
NCI-H226 = conditions: for NSCLC colony formation (colonies): NCI-H226, 1 μM addition, control 43.1 ± 5.7
NCI-H727 = conditions: for NSCLC colony formation (colonies): NCI-H727, 1 μM addition, control 35.2 ± 2.3
NCI-H1299 = conditions: for NSCLC colony formation (colonies): NCI-H1299, 1 μM addition, control 29 ± 3.1
[2] = test system: dissociated mouse spinal cord cultures (neurons); experiment: Neuronal survival in dissociated spinal cord cultures; assay type: cell-based
[3] = test system: cAMP (low affinity) VIP receptor on astroglia cells; experiment: Displacement of 125I-VIP from astroglia cells; conditions: central nervous system, FIGS. 2 and 3
[4] = test system: Sprague-Dawley rat pups, locomotive activity rhythm; experiment: Circadian motor activity rhythms after chronic injection; assay type: in vivo; conditions: 5 μg/day subcutaneous, 28 days, newborn rat pups
Description: FIGS. 4(A-J). VIP antagonism disturbed the biological clock via a cAMP-mediated mechanism. Newborn rat pups (Sprague-Dawley, locally bread, Yoxheam, Israel) were chronically injected with VIP analogues (5 μg of each analogue/50 μl/day, subcutaneous), for 28 consecutive days. The vehicle of injection was either 0.01M acetic acid or 15% dimethylsulfoxide (for the lipophilic peptides). On day 21, the animals were placed each one in a separate cage and their locomotive activity was continuously measured. The pattern of locomotive activity was measured using an animal monitoring system with an infrared detector for 7 days (A, C, E, G, I). The spectral periods of rhythm in the activity data was detected by a special statistical method because of the short computer sampling period. […]
Animals were each placed in a separate cage and motor activity was continuously recorded for 6-9 days, using an animal monitoring system with an infrared detector. Spectral analysis of motor activity rhythms is then determined by the fitting of different cosine curves to the activity data (see, Mattes, et al., Chronobiology Int'l, 8:460 (1991)).

[5] = test system: VIP-stimulated cAMP formation in astrocytes; experiment: VIP-stimulated cAMP formation in cortical astrocyte cultures; assay type: cell-based, rat; conditions: 1 μM VIP, FIG. 2
Description: FIG. 2. VIP-stimulated cAMP formation was inhibited in the presence of the family of VIP antagonists. Cortical astrocyte cultures were incubated for 10 min with 1 μm VIP and cAMP accumulation was determined by radioimmunoassay (Gozes, et al., J. Pharmacol. & Exp. Therap., 257:959 (1991)). Increasing concentrations of the antagonists were placed in the astrocyte cultures 5 minutes prior to the addition of VIP. Astrocytes were maintained in 35 mm tissue culture dishes with 0.3 mg protein per dish. Each value is the mean of 8-10 determinations from 4 experiments. […] The error bar is the SEM.
In view of the foregoing, astroglia cells were utilized to compare the effects the VIP antagonists of the present invention have on VIP-stimulated cAMP formation. For cAMP determinations, the general protocols involve either the measurement of adenylate cyclase activity or, the use of radioimmunoassays for cAMP which utilize a cAMP determination kit from NEN (New England Nuclear, Boston, Mass.)36 previously described by Gozes, et al. (J. Pharmacol. Exp. Therap., 257:959 (1991)). An HCl (0.05M) extract neutralizecl with 0.5M NaOH may be utilized for the tests.
Rat astrocytes were maintained in cell culture as described above. The accumulation of cAMP was measured by radio-immunoassay (NEN kit, New England Nuclear) from cold trichloro acetic acid extracts (Evans et al., supra, 1984). […]

[6] = test system: neuroblastoma (NMB) cells; experiment: Thymidine incorporation into neuroblastoma (NMB) cells; assay type: cell-based, human; conditions: 24 hours incubation, one day after seeding; read-out: EC50, stimulation of thymidine incorporation into NMB cells
[7] = test system: c-fos mRNA in NCIH810 cells; experiment: c-fos mRNA assay; assay type: cell-based
Description: In addition, the ability of VIP and the S-hybrid VIP antagonist to stimulate c-fos mRNA was examined; c-fos mRNA is a marker for cancer cell proliferation. […] This is true regardless of whether the VIP antagonist is co-administered with VIP or added by itself (See, Table IV, infra).
^a NCIH810 cells were treated with the peptide and the cfos mRNA
determined after 1 hour.
For the c-fos experiments, SCLC cells were cultured with SIT medium containing 0.5% fetal bovine serum. After 4 hours, the cells were treated with stimuli such as 10 nM BN for 60 min. Total RNA was isolated using the guanidinium isothiocyanate (GIT) method. Ten μg of denatured RNA was separated in a 0.66M formaldehyde 1% agarose gel as previously described. The gel was treated with ethidium bromide tp assess RNA integrity. The RNA was blotted onto a nitrocellulose membrane overnight and the membrane hybridized with a c-fos probe labelled with ^32 P-dCTP using a Bethesda Research Laboratories random priming kit. The membrane was exposed to Kodax XAR-2 film at […] for 1 day and the autoradiogram developed. The autoradiogram were analyzed using a Molecular Dynamics densitometer.

[8] = test system: VIP receptors on neuroblastoma (NMB) cells; experiment: VIP binding and displacement on intact neuroblastoma (NMB) cells; parameters: species or system human
Description: Alternatively, the VIP was iodinated according to the procedure described by Werner, et al. (Biochem. Biophys. Res. Commun., 133:228-232 (1985)). […] Experiments were repeated at least three times, each containing triplicates, error bars represent the standard error. Cells were grown for 24 hours (circles) and 48 hours (triangles). […] The binding parameters were determined by ACCUFIT program, Lundon-2 competition analysis (LUNDON software Inc., Chargin Falls, Ohio, U.S.A.). […] The calculated Bmax was 6×10^-14 moles/mg and 1.5×10^-14 moles/mg for cells grown for 24 hours as compared to cells grown for 48 hours, respectively.

[9] = test system: neuroblastoma (NMB) cells; experiment: Neuroblastoma (NMB) cell division by cell counts; assay type: cell-based, human
Description: FIG. 5. […] Neuroblastoma (NMB) cells have been grown in culture using RPMI-1640 medium supplemented with 10% fetal calf serum and gentamicin (100 μl of 40 mg/ml stock solution per 100 mL medium) in a humidified atmosphere of 5% CO2, 95% air. Cells were harvested with Puck's saline containing 0.25% trypsin and 0.02M EDTA every four days, centrifuged and seeded in 60 mm diameter tissue culture dishes (CORNING) at a density of 0.6-0.7×10^6 cells per dish.
For mitogenic assays, human NM cells were seeded in 35 mm diameter tissue culture dishes (CORNING) at a density of 0.2×10^6 cells per dish in RPMI-1640 medium plus 10% fetal calf serum. […] Cell counts were performed with a hemocytometer, using trypan blue staining for viability, on the second day (24 hours) after the VIP treatment. Results shown on the graph are cell/dish×1000. Error bars represent the standard error. Three-six replicates were counted for each data point and experiments were repeated three independent times.

CCCC[C@H](NC(=O)[C@H](CCC(N)=O)NC(=O)[C@H](CCCCN)NC(=O)[C@H](CCCNC(=N)N)NC(=O)[C@H](CC(C)C)NC(=O)[C@H](CCCNC(=N)N)NC(=O)[C@@H](NC(=O)[C@H](Cc1ccc(O)cc1)NC(=O)[C@H](CC(N)=O)NC(=O)[C@H](CC(=O)O)NC(=O)[C@@H](NC(=O)[C@H](Cc1ccc(O)cc1)NC(=O)[C@@H]1CCCN1C(=O)[C@H](CCCNC(=N)N)NC(=O)[C@H](CCCNC(=N)N)NC(=O)[C@@H]1CCCN1C(=O)[C@@H](N)CCCCN)[C@@H](C)O)[C@@H](C)O)C(=O)N[C@@H](C)C(=O)N[C@H](C(=O)N[C@@H](CCCCN)C(=O)N[C@@H](CCCCN)C(=O)N[C@@H](Cc1ccc(O)cc1)C(=O)N[C@@H](CC(C)C)C(=O)N[C@@H](CC(N)=O)C(=O)N[C@@H](CO)C(=O)N[C@H](C(=O)N[C@@H](CC(C)C)C(=O)N[C@@H](CC(N)=O)C(N)=O)[C@@H](C)CC)C(C)C [NL-hybrid VIP antagonist] (H-KPRRPYTDNYTRLRKQ[Nle]AVKKYLNSILN-NH2)
potency relative to the hybrid antagonist in inhibiting tumor cell growth ([1]; two out of three NSCLC cell lines): ten-fold more potent
inhibition of cell growth (NCI-H226): 92%
NSCLC colony formation (colonies) (NCI-H226): 3.5 ± 2.5
inhibition of cell growth (NCI-H727): 88%
NSCLC colony formation (colonies) (NCI-H727): 4.2 ± 3.1
inhibition of cell growth (NCI-H1299): 100%
NSCLC colony formation (colonies) (NCI-H1299): 0
fold more potent than the hybrid VIP antagonist at inducing neuronal cell death [2]: 10 fold
affinity for the VIP-neuronal survival associated receptor (in words) ([2]; central nervous system, FIG. 1): has an affinity for both
concentration of maximal effect on neuronal cell death ([2]; spinal cord cultures, FIG. 1): 10^-10 M
affinity for the cAMP (low affinity) VIP receptor (in words) [3]: has an affinity for both
effect on 24 hours periodicity of activity rhythm [4]: abolished this 24 hours periodicity
overall activity of the animals [4]: overall increase in the activity
inhibition of VIP-induced cAMP formation (in words) [5]: effectively inhibits VIP-induced cAMP formation

CC[C@H](C)[C@H](NC(=O)[C@H](CO)NC(=O)[C@H](CC(N)=O)NC(=O)[C@H](CC(C)C)NC(=O)[C@H](Cc1ccc(O)cc1)NC(=O)[C@H](CCCCN)NC(=O)[C@H](CCCCN)NC(=O)[C@@H](NC(=O)[C@H](C)NC(=O)[C@H](CCSC)NC(=O)[C@H](CCC(N)=O)NC(=O)[C@H](CCCCN)NC(=O)[C@H](CCCNC(=N)N)NC(=O)[C@H](CC(C)C)NC(=O)[C@H](CCCNC(=N)N)NC(=O)[C@@H](NC(=O)[C@H](Cc1ccc(O)cc1)NC(=O)[C@H](CC(N)=O)NC(=O)[C@H](CC(=O)O)NC(=O)[C@@H](NC(=O)[C@H](Cc1ccccc1)NC(=O)[C@@H](NC(=O)[C@H](C)NC(=O)[C@H](CC(=O)O)NC(=O)[C@H](CO)NC(=O)[C@@H](N)Cc1c[nH]cn1)C(C)C)[C@@H](C)O)[C@@H](C)O)C(C)C)C(=O)N[C@@H](CC(C)C)C(=O)N[C@@H](CC(N)=O)C(N)=O [VIP, Vasoactive intestinal polypeptide]
stimulation of NSCLC colony formation in agar ([1]; index of cell growth): 2-3 fold
NSCLC colony formation (colonies) (NCI-H226): 87.4 ± 4.8
EC50 [6]: 500 nM
NSCLC colony formation (colonies) (NCI-H727): 115 ± 22.7
NSCLC colony formation (colonies) (NCI-H1299): 55.8 ± 19.8
c-fos mRNA ([7]; 10 nM, NCIH810 cells, after 1 hour, NONE = 1.0): 5.6
effect on c-fos mRNA (in words) ([7]; antagonist co-administered with VIP or added by itself): stimulates c-los mRNA
fold higher affinity in younger cells (24 hrs) compared with older cells (48 hrs) [8]: about 10 fold
EC50 ([9]; 24 hour VIP treatment, added one day after seeding, read-out: EC50, stimulation of NMB cell division by cell counts): 500 nM
mitosis when added 48 hours after plating ([9]; additional 24 hours incubation): did not stimulate mitosis
concentration at peak of mitogenic activity ([9]; cell counts and thymidine incorporation, decreased thereafter): 1 µM
